Results reported in patent publication US4442044A, “Process for preparing monoesters and diesters of N-alkyl substituted amino methyl phosphonic acid” (priority 1983, dated 1984).

What was measured:
Test in all cases: post-emergent herbicidal activity, greenhouse
Type in all cases: in vivo
[1] = system: Quackgrass; details: Table I, 4 WAT
Procedure, shortened: (§1)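 Post-emergence foliar spray at tabulated application rates, using aliquots of a 1.0% stock in acetone, THF or water plus ~0.4% emulsifier, applied to 2–3-week-old greenhouse plants. Plant injury was rated relative to controls roughly two and four weeks after treatment.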

[2] = system: Smartweed
Procedure, shortened: as §1

[3] = system: Panicum Spp; details: Table II
Procedure, shortened: as §1

[4] = system: Wild Buckwheat; details: Table II
Procedure, shortened: as §1

[5] = system: Soybean; details: Table II
Procedure, shortened: as §1

[6] = system: Downy Brome
Procedure, shortened: as §1

[7] = system: Yellow Nutsedge; details: Table I, 4 WAT, 11.2 kg/h
Procedure, shortened: as §1

[8] = system: Rice; details: Table II
Procedure, shortened: as §1

[9] = system: Velvetleaf
Procedure, shortened: as §1

[10] = system: Crabgrass; details: Table II
Procedure, shortened: as §1

[11] = system: Sorghum; details: Table II
Procedure, shortened: as §1

[12] = system: Sugar Beet; details: Table II
Procedure, shortened: as §1

[13] = system: Johnsongrass; details: Table I, 4 WAT
Procedure, shortened: as §1

[14] = system: Hemp Sesbania; details: Table II, 4 WAT
Procedure, shortened: as §1

[15] = system: Cocklebur
Procedure, shortened: as §1

[16] = system: Barnyardgrass
Procedure, shortened: as §1

[17] = system: Morningglory
Procedure, shortened: as §1

[18] = system: Lambsquarters
Procedure, shortened: as §1

[19] = system: Wheat; details: Table II
Procedure, shortened: as §1

[20] = system: Canada Thistle; details: Table I, 4 WAT
Procedure, shortened: as §1

Measured: post-emergent herbicidal activity index

CC(C#N)OP(=O)(O)CNCC(=O)OCCCl (stereo not shown) [Example 7, glycine, N-[[(1-cyanoethoxy)hydroxyphosphinyl]methyl], 2-chloroethyl ester]
3 (75-99% control): [2]; Table II, 4 WAT, 1.12 kg/h | [3]; 4 WAT, 0.06 kg/h | [3]; 4 WAT, 0.28 kg/h | [3]; 4 WAT, 5.6 kg/h | [5]; 4 WAT, 5.6 kg/h | [6]; Table II, 4 WAT, 5.6 kg/h | [7] | [8]; 4 WAT, 1.12 kg/h | [8]; 4 WAT, 5.6 kg/h | [9]; Table I, 4 WAT, 5.6 kg/h | [9]; Table I, 4 WAT, 11.2 kg/h | [9]; Table II, 4 WAT, 5.6 kg/h | [10]; 4 WAT, 0.06 kg/h | [11]; 4 WAT, 5.6 kg/h | [12]; 4 WAT, 1.12 kg/h | [14]; 0.28 kg/h | [15]; Table I, 4 WAT, 11.2 kg/h | [15]; Table II, 4 WAT, 5.6 kg/h | [16]; Table I, 4 WAT, 5.6 kg/h | [16]; Table II, 4 WAT, 1.12 kg/h | [16]; Table II, 4 WAT, 5.6 kg/h | [18]; Table I, 4 WAT, 11.2 kg/h | [19]; 4 WAT, 0.28 kg/h | [19]; 4 WAT, 1.12 kg/h
1 (25-49% control): [2]; Table II, 4 WAT, 0.06 kg/h | [5]; 4 WAT, 0.28 kg/h | [6]; Table II, 4 WAT, 0.06 kg/h | [8]; 4 WAT, 0.28 kg/h | [9]; Table II, 4 WAT, 0.06 kg/h | [13]; 5.6 kg/h | [17]; Table II, 2 WAT, 0.01 kg/h | [17]; Table II, 4 WAT, 0.28 kg/h | [18]; Table II, 2 WAT, 0.01 kg/h | [19]; 4 WAT, 0.06 kg/h
0 (0-24% control): [1]; 11.2 kg/h | [2]; Table II, 2 WAT, 0.01 kg/h | [3]; 2 WAT, 0.01 kg/h | [4]; 2 WAT, 0.01 kg/h | [4]; 4 WAT, 0.06 kg/h | [5]; 2 WAT, 0.01 kg/h | [5]; 4 WAT, 0.06 kg/h | [6]; Table II, 2 WAT, 0.01 kg/h | [8]; 2 WAT, 0.01 kg/h | [8]; 4 WAT, 0.06 kg/h | [9]; Table II, 2 WAT, 0.01 kg/h | [11]; 2 WAT, 0.01 kg/h | [12]; 2 WAT, 0.01 kg/h | [12]; 4 WAT, 0.06 kg/h | [13]; 11.2 kg/h | [14]; 0.06 kg/h | [15]; Table II, 2 WAT, 0.01 kg/h | [15]; Table II, 4 WAT, 0.06 kg/h | [16]; Table II, 2 WAT, 0.01 kg/h | [18]; Table II, 4 WAT, 0.06 kg/h | [19]; 2 WAT, 0.01 kg/h
4 (100% control): [2]; Table I, 4 WAT, 5.6 kg/h | [2]; Table I, 4 WAT, 11.2 kg/h | [2]; Table II, 4 WAT, 0.28 kg/h | [2]; Table II, 4 WAT, 5.6 kg/h | [3]; 4 WAT, 1.12 kg/h | [12]; 4 WAT, 0.28 kg/h | [12]; 4 WAT, 5.6 kg/h | [14]; 5.6 kg/h | [15]; Table I, 4 WAT, 5.6 kg/h | [18]; Table I, 4 WAT, 5.6 kg/h | [18]; Table II, 4 WAT, 0.28 kg/h | [19]; 4 WAT, 5.6 kg/h
2 (50-74% control): [1]; 5.6 kg/h | [4]; 4 WAT, 0.28 kg/h | [4]; 4 WAT, 1.12 kg/h | [4]; 4 WAT, 5.6 kg/h | [5]; 4 WAT, 1.12 kg/h | [6]; Table I, 4 WAT, 5.6 kg/h | [6]; Table I, 4 WAT, 11.2 kg/h | [6]; Table II, 4 WAT, 0.28 kg/h | [6]; Table II, 4 WAT, 1.12 kg/h | [9]; Table II, 4 WAT, 0.28 kg/h | [9]; Table II, 4 WAT, 1.12 kg/h | [10]; 2 WAT, 0.01 kg/h | [11]; 4 WAT, 0.06 kg/h | [11]; 4 WAT, 0.28 kg/h | [11]; 4 WAT, 1.12 kg/h | [14]; 1.12 kg/h | [15]; Table II, 4 WAT, 0.28 kg/h | [15]; Table II, 4 WAT, 1.12 kg/h | [16]; Table I, 4 WAT, 11.2 kg/h | [16]; Table II, 4 WAT, 0.06 kg/h | [16]; Table II, 4 WAT, 0.28 kg/h | [17]; Table I, 4 WAT, 5.6 kg/h | [17]; Table I, 4 WAT, 11.2 kg/h | [17]; Table II, 4 WAT, 0.06 kg/h | [17]; Table II, 4 WAT, 1.12 kg/h | [17]; Table II, 4 WAT, 5.6 kg/h | [18]; Table II, 4 WAT, 1.12 kg/h | [18]; Table II, 4 WAT, 5.6 kg/h | [20]; 5.6 kg/h | [20]; 11.2 kg/h
